Measured values as given in ChEMBL document CHEMBL3991601, “The target landscape of clinical kinase drugs” (Science, 2017).
Activity calls are given as the source filed them.

Key:
[1] = target: T1, cGMP-dependent protein kinase 1 (Homo sapiens, UniProt Q13976)
T1 sequence (Q13976 whole entry): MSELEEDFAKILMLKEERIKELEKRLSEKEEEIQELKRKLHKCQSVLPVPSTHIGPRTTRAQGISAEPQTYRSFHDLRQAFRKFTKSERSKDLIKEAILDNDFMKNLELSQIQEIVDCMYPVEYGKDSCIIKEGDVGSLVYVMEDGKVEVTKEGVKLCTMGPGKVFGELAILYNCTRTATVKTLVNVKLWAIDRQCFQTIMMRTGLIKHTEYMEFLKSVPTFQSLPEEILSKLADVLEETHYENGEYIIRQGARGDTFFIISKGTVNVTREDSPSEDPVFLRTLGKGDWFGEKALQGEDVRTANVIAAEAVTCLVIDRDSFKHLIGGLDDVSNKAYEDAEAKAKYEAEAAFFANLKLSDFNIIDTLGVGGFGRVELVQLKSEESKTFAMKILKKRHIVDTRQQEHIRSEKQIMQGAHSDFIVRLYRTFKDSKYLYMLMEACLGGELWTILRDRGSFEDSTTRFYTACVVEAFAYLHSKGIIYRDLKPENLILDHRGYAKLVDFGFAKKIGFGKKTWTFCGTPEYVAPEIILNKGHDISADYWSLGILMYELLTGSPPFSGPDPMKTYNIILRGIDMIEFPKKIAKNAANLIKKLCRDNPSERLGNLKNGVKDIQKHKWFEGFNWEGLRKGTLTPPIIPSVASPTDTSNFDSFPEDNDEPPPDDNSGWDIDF

[2] = target: Protein kinase C alpha type (Homo sapiens, UniProt P17252)
[3] = target: Mitogen-activated protein kinase 7 (Homo sapiens, UniProt Q13164)
Chain of Mitogen-activated protein kinase 7 (Q13164 whole entry): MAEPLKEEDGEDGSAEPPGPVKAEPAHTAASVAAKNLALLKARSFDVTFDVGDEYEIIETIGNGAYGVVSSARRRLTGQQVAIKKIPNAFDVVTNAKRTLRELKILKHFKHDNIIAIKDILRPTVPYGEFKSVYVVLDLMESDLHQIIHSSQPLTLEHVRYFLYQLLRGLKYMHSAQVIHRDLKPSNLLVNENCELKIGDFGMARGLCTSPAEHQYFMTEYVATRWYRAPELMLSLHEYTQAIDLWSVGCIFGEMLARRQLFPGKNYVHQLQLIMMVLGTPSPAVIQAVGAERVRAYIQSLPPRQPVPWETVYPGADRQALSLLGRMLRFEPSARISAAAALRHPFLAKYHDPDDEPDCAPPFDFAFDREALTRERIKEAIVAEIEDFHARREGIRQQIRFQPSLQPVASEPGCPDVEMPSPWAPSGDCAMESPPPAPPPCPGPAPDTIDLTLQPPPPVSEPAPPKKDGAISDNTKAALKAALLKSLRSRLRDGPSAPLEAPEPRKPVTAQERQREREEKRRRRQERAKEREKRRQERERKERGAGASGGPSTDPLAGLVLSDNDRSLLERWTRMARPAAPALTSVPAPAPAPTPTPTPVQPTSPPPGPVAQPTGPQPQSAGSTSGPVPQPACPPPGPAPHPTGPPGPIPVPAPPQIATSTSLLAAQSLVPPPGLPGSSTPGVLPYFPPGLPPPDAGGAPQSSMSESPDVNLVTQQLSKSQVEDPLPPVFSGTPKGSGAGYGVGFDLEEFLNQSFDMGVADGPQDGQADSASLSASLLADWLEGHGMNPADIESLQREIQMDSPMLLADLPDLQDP

[4] = target: T2, Exosome RNA helicase MTR4 (Homo sapiens, UniProt P42285)
T2 sequence (P42285 whole entry): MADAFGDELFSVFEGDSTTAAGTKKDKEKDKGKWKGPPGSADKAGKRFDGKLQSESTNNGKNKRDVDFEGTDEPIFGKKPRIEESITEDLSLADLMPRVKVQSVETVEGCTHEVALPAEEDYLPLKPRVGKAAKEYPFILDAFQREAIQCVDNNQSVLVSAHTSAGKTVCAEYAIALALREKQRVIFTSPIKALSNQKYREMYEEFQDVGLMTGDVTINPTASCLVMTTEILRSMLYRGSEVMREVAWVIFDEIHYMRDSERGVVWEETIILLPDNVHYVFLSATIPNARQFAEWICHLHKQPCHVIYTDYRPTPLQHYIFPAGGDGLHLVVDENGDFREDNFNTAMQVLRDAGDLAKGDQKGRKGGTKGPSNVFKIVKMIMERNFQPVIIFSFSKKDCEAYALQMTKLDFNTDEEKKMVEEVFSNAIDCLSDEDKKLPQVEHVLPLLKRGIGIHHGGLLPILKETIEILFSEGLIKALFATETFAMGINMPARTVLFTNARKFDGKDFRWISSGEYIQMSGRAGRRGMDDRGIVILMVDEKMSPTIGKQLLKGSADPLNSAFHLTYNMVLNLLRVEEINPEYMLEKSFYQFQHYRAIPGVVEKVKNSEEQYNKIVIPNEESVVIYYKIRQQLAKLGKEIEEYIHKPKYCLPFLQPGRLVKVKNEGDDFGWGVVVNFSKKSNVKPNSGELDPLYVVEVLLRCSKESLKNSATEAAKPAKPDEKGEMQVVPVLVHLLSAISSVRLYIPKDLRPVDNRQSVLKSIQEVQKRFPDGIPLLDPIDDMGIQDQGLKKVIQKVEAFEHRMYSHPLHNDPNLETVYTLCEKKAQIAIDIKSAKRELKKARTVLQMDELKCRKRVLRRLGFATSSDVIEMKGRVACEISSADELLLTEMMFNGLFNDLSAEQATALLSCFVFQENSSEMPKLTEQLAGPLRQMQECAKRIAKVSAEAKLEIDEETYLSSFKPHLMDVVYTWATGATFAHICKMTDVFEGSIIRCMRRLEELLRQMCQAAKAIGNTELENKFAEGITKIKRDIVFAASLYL

[5] = target: T3, Acyl-CoA dehydrogenase family member 11 (Homo sapiens, UniProt Q709F0)
T3 sequence (Q709F0 whole entry): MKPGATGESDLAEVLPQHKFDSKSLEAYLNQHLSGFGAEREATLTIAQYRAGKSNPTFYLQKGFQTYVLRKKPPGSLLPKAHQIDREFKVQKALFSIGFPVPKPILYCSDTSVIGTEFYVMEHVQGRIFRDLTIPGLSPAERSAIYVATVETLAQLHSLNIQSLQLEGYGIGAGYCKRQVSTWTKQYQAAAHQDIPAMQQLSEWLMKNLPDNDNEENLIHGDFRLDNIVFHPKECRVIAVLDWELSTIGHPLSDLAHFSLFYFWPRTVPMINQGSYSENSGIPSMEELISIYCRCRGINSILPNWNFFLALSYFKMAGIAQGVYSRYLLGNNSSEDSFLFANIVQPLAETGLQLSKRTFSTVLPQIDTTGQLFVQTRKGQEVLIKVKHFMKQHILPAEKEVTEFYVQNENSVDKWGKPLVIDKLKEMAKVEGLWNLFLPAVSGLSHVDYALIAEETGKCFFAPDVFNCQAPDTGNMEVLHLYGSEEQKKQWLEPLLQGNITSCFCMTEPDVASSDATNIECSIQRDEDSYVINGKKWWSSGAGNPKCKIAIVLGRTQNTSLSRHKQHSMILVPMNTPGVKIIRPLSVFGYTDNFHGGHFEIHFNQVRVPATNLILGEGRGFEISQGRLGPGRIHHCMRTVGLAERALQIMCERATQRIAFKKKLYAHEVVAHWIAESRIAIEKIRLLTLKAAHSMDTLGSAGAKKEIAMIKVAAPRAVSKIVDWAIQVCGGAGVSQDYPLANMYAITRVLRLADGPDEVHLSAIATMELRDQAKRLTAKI

[6] = target: Rho-associated protein kinase 2 (Homo sapiens, UniProt O75116)
Chain of Rho-associated protein kinase 2 (O75116 whole entry): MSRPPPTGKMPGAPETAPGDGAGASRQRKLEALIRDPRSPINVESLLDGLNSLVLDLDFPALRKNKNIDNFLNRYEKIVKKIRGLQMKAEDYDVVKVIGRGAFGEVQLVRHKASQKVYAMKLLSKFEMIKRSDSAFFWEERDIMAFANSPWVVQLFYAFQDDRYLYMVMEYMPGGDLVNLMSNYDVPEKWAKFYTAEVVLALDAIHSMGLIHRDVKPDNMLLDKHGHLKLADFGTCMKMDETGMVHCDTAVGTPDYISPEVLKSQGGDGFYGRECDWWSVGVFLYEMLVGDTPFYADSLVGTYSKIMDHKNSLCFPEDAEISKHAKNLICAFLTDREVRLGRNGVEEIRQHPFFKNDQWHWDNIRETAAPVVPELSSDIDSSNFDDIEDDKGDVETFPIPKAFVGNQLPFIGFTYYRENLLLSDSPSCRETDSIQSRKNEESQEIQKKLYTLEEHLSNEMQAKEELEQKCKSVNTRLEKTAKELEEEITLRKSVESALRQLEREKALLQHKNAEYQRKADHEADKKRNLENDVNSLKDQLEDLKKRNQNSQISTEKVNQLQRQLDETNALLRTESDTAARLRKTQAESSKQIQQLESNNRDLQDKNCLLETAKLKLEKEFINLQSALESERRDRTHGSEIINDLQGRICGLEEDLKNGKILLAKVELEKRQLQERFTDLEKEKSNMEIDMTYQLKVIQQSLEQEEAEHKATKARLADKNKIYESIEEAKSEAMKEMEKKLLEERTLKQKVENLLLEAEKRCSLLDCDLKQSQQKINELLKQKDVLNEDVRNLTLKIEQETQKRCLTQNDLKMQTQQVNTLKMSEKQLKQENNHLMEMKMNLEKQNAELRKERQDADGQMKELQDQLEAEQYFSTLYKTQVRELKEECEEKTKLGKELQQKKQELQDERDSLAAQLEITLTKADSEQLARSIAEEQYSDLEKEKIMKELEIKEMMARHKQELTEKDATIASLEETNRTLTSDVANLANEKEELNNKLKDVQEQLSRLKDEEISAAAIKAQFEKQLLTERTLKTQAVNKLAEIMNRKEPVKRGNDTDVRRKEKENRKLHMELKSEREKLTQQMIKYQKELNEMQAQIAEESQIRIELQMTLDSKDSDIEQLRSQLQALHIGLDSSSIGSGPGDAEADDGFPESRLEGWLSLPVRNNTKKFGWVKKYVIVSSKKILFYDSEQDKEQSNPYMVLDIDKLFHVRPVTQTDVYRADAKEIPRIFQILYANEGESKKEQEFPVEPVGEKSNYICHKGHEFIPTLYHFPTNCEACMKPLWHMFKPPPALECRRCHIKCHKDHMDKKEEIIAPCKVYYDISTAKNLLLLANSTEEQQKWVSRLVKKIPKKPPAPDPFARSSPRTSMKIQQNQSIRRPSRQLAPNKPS
Further: in the data inactive means no Kd found up to 30 µM.

Compound	Kd [1]	Kd [2]	Kd [3]	Kd [4]	Kd [5]	Kd [6]
COc1cc(OC)c(/C=C/S(=O)(=O)Cc2ccc(OC)c(NCC(=O)O)c2)c(OC)c1 [RIGOSERTIB]	> 30 µM (inactive)	> 30 µM (inactive)	> 30 µM (inactive)	> 30 µM (inactive)	> 30 µM (inactive)	> 30 µM (inactive)
CNC(=O)CN1CCC(Oc2cc3c(Nc4cccc(Cl)c4F)ncnc3cc2OC)CC1 [SAPITINIB]	> 30 µM (inactive)	> 30 µM (inactive)	> 30 µM (inactive)	> 30 µM (inactive)	> 30 µM (inactive)	> 30 µM (inactive)
CN1CCC(CNc2ccc3ncc(-c4cccc(OC(F)(F)F)c4)n3n2)CC1 [SGI-1776]	> 30 µM (inactive)	> 30 µM (inactive)	> 30 µM (inactive)	> 30 µM (inactive)	> 30 µM (inactive)	> 30 µM (inactive)
C[C@@H]1CN(Cc2ccc(F)cc2)[C@@H](C)CN1C(=O)c1cc2c(C(=O)C(=O)N(C)C)cn(C)c2cc1Cl [TALMAPIMOD]	> 30 µM (inactive)	> 30 µM (inactive)	> 30 µM (inactive)	> 30 µM (inactive)	> 30 µM (inactive)	> 30 µM (inactive)
CN1CCC(COc2cnc(-c3cccc(Cn4nc(-c5cccc(C#N)c5)ccc4=O)c3)nc2)CC1 [TEPOTINIB]	> 30 µM (inactive)	> 30 µM (inactive)	> 30 µM (inactive)	> 30 µM (inactive)	> 30 µM (inactive)	> 30 µM (inactive)
CN1N=C(N)c2cn([C@@H]3O[C@H](COP(=O)(O)O)[C@@H](O)[C@H]3O)c3ncnc1c23 [TRICIRIBINE PHOSPHATE]	> 30 µM (inactive)	> 30 µM (inactive)	> 30 µM (inactive)	> 30 µM (inactive)	> 30 µM (inactive)	> 30 µM (inactive)
CC[C@@H]1C(=O)N(C)c2cnc(Nc3ccc(C(=O)N[C@H]4CC[C@H](N5CCN(CC6CC6)CC5)CC4)cc3OC)nc2N1C(C)C [VOLASERTIB]	> 30 µM (inactive)	> 30 µM (inactive)	> 30 µM (inactive)	> 30 µM (inactive)	> 30 µM (inactive)	> 30 µM (inactive)
CCn1c(=O)c(-c2cc[nH]n2)cc2c(C)nc(N)nc21 [VOXTALISIB]	> 30 µM (inactive)	> 30 µM (inactive)	> 30 µM (inactive)	> 30 µM (inactive)	> 30 µM (inactive)	> 30 µM (inactive)

More lines, now with the values ahead:

Kd [1]	Kd [2]	Kd [3]	Kd [4]	Kd [5]	Kd [6]	Compound
> 30 µM (inactive)	> 30 µM (inactive)	> 30 µM (inactive)	> 30 µM (inactive)	> 30 µM (inactive)	> 30 µM (inactive)	CNC(=O)c1cc(Oc2ccc(NC(=O)Nc3ccc(Cl)c(C(F)(F)F)c3)c(F)c2)ccn1 [REGORAFENIB]
> 30 µM (inactive)	> 30 µM (inactive)	> 30 µM (inactive)	> 30 µM (inactive)	> 30 µM (inactive)	> 30 µM (inactive)	COc1cc2nccc(Oc3ccc(NC(=O)Nc4cc(C)on4)c(Cl)c3)c2cc1OC [TIVOZANIB]
> 30 µM (inactive)	> 30 µM (inactive)	> 30 µM (inactive)	> 30 µM (inactive)	> 30 µM (inactive)	> 30 µM (inactive)	CC(=O)Nc1cccc(-n2c(=O)n(C3CC3)c(=O)c3c(Nc4ccc(I)cc4F)n(C)c(=O)c(C)c32)c1 [TRAMETINIB]
> 30 µM (inactive)	> 30 µM (inactive)	> 30 µM (inactive)	> 30 µM (inactive)	> 30 µM (inactive)	> 30 µM (inactive)	CC(C)Nc1cc(-c2c[nH]c(C(=O)N[C@H](CO)c3cccc(Cl)c3)c2)c(Cl)cn1 [ULIXERTINIB]
> 30 µM (inactive)	> 30 µM (inactive)	> 30 µM (inactive)	> 30 µM (inactive)	> 30 µM (inactive)	> 30 µM (inactive)	CCCS(=O)(=O)Nc1ccc(F)c(C(=O)c2c[nH]c3ncc(-c4ccc(Cl)cc4)cc23)c1F [VEMURAFENIB]
